For 30 molecules, IC50 and DC50 results are on record in US12384776B2, “Compounds and uses thereof” (Foghorn Therapeutics Inc., priority 2019, dated 2025).

In general, IC50 refers to the point on the concentration scale where inhibition reaches its midpoint. A low value points to greater potency in that assay.

Structures are written as SMILES.

Chain of Nanoluciferase-BRD9 fusion protein (3×FLAG-NLuc-BRD9) in SYO-1 cells (Q9H8M2 whole entry, the tested form may be a part): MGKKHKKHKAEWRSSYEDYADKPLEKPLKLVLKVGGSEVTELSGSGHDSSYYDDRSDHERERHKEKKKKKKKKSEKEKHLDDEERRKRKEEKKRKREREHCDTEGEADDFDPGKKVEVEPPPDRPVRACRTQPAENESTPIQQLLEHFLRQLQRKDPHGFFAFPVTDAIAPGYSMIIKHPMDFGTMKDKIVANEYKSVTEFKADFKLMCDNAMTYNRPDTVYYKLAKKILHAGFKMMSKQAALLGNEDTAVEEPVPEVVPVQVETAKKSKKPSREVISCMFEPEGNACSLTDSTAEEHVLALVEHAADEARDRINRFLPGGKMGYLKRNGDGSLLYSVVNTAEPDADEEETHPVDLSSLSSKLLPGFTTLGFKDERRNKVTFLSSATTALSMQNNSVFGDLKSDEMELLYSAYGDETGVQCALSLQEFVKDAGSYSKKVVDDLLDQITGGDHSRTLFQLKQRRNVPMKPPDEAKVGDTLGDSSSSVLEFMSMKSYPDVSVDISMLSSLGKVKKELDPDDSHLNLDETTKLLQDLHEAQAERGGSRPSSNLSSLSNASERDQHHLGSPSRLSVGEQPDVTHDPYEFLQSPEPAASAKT

The first assay deals with Nanoluciferase-BRD9 fusion protein (3×FLAG-NLuc-BRD9) in SYO-1 cells (Homo sapiens (Human), UniProt Q9H8M2). The experiment in a line: SYO1 BRD9 NanoLuc degradation assay. The class given is cell-based. The note with it: SYO-1 cells expressing 3×FLAG-NLuc-BRD9, 6 hours incubation, top dose 1 μM. As to the method:
Procedure: A stable SYO-1 cell line expressing 3×FLAG-NLuc-BRD9 was generated. On day 0 cells were seeded in 30 μL media into each well of 384-well cell culture plates. The seeding density was 8000 cells/well. On day 1, cells were treated with 30 nL DMSO or 30 nL of 3-fold serially DMSO-diluted compounds (10 points in duplicates with 1 μM as final top dose). Subsequently plates were incubated for 6 hours in a standard tissue culture incubator and equilibrated at room temperature for 15 minutes. Nanoluciferase activity was measured by adding 15 μL of freshly prepared Nano-Glo Luciferase Assay Reagent (Promega N1130), shaking the plates for 10 minutes and reading the bioluminescence using an EnVision reader.
Results: The Inhibition % was calculated using the following formula: % Inhibition=100×(LumHC−LumSample)/(LumHC−LumLC). DMSO treated cells are employed as High Control (HC) and 1 μM of a known BRD9 degrader standard treated cells are employed as Low Control (LC).
On to `CNC(=O)N1CCc2c(-c3cc(OC)c(CN4CC(CC(=O)N5CCC6(CC5)CC(Oc5ccc7c(c5)C(=O)N(C5CCC(=O)NC5=O)C7=O)C6)C4)c(OC)c3)cn(C)c(=O)c2C1` (stereo not drawn) [Compound D275], for which the IC50 lay within 10 to 100 nM. As to `CNC(=O)N1CCc2c(-c3cc(OC)c(CN4CCC(CCN5CCN(c6cc7c(cc6F)C(=O)N(C6CCC(=O)NC6=O)C7)CC5)CC4)c(OC)c3)cn(C)c(=O)c2C1` (stereo not drawn) [Compound D84], the IC50 was less than 10 nM. `CNC(=O)N1CCc2c(-c3cc(OC)c(CN4CCC5(CCC(N6Cc7cc8c(cc7C6)C(=O)N(C6CCC(=O)NC6=O)C8=O)CC5)CC4)c(OC)c3)cn(C)c(=O)c2C1` (stereo not drawn) [Compound D181] showed an IC50 of less than 10 nM. On the same count and under the same terms, as for `CNC(=O)N1CCc2c(-c3cc(OC)c(CN4CC(CN5CC6(CCN(c7ccc8c(c7)C(=O)N(C7CCC(=O)NC7=O)C8=O)C6)C5)C4)c(OC)c3)cn(C)c(=O)c2C1` (stereo not drawn) [Compound D167], the figure is 10 to 100 nM; as for `[2H]C1([2H])N(CCC2CCN(c3ccc4c(c3)C(=O)N(C3CCC(=O)NC3=O)C4=O)CC2)C([2H])([2H])C([2H])([2H])N(Cc2c(OC)cc(-c3cn(C)c(=O)c4c3CCN(C(=O)NC)C4)cc2OC)C1([2H])[2H]` (stereo not drawn) [Compound D105], less than 10 nM; as for `CNC(=O)N1CCc2c(-c3cc(OC)c(CN4CCC(CCN5CCN(c6cc7c(cc6F)CN(C6CCC(=O)NC6=O)C7=O)CC5)CC4)c(OC)c3)cn(C)c(=O)c2C1` (stereo not drawn) [Compound D83], less than 10 nM. Still for that read-out and setting: under `CNC(=O)N1CCc2c(-c3cc(OC)c(CN4CCN(CC5CCN(c6ccc7c(c6)C(=O)N(C6CCC(=O)NC6=O)C7)CC5)CC4)c(OC)c3)cn(C)c(=O)c2C1` (stereo not drawn) [Compound D40] stands less than 10 nM; under `COc1cc(-c2cn(C)c(=O)c3c2CCN(C(=O)NC2CCC4CN(CCCOc5ccc6c(c5)C(=O)N(C5CCC(=O)NC5=O)C6=O)CC42)C3)cc(OC)c1CN(C)C` (stereo not drawn) [Compound D244], 100 to 1000 nM. With `CNC(=O)N1CCc2c(-c3cc(OC)c(CN4CCC(F)(CN5CCN(c6ccc7c(c6)C(=O)N(C6CCC(=O)NC6=O)C7=O)CC5)CC4)c(OC)c3)cn(C)c(=O)c2C1` (stereo not drawn) [Compound D147], the concentration for half-maximal inhibition (IC50) was less than 10 nM. Same read-out and setting: as for `CNC(=O)N1Cc2c(-c3cc(OC)c(CN4CCC(CCN5CCN(c6ccc7c(c6)C(=O)N(C6CCC(=O)NC6=O)C7=O)CC5)CC4)c(OC)c3)cn(C)c(=O)c2C1` (stereo not drawn) [Compound D299], the figure is less than 10 nM; as for `COc1cc(-c2cn(C)c(=O)c3c2CCN(C(=O)NCC2CC4CN(c5ccc6c(c5)C(=O)N([C@@H]5CCC(=O)NC5=O)C6=O)CC4C2)C3)cc(OC)c1CN(C)C` (stereo partly drawn) [Compound D123], less than 10 nM. In turn, `COc1cc(-c2cn(C)c(=O)c3c2CCN(C(=O)NCCCN2CCC(OC4CCN(c5ccc6c(c5)C(=O)N(C5CCC(=O)NC5=O)C6=O)CC4)CC2)C3)cc(OC)c1CN(C)C` (stereo not drawn) [Compound D223] gave an IC50 of 10 to 100 nM. The molecule `COc1cc(-c2cn(C)c(=O)c3c2CCN(C(=O)NCCN2CCC4C(C2)CN4c2ccc4c(c2)C(=O)N(C2CCC(=O)NC2=O)C4=O)C3)cc(OC)c1CN(C)C` (stereo not drawn) [Compound D187] displayed an IC50 of 10 to 100 nM. For the molecule `CNC(=O)N1CCc2c(-c3cc(OC)c(CN4CCC(CCN5CCN(c6c(F)cc7c(c6F)C(=O)N(C6CCC(=O)NC6=O)C7=O)CC5)CC4)c(OC)c3)cn(C)c(=O)c2C1` (stereo not drawn) [Compound D78], the IC50 was less than 10 nM. Molecule `CNC(=O)N1CCc2c(-c3cc(OC)c(CN4CCC(CCN(C)C5CCCN(c6ccc7c(c6)C(=O)N(C6CCC(=O)NC6=O)C7=O)C5)CC4)c(OC)c3)cn(C)c(=O)c2C1` (stereo not drawn) [Compound D173] gave an IC50 of less than 10 nM. For `CNC(=O)N1CCc2c(-c3cc(OC)c(CN4C[C@@H](C)N(CCC5CCN(c6ccc7c(c6)C(=O)N(C6CCC(=O)NC6=O)C7=O)CC5)[C@@H](C)C4)c(OC)c3)cn(C)c(=O)c2C1` (stereo partly drawn) [Compound D42], the IC50 was less than 10 nM.

In turn, `CNC(=O)N1CCc2c(-c3cc(OC)c(CN4CC5(CC(N6Cc7cc8c(cc7C6)C(=O)N(C6CCC(=O)NC6=O)C8=O)C5)C4)c(OC)c3)cn(C)c(=O)c2C1` (stereo not drawn) [Compound D177] showed an IC50 of 10 to 100 nM. On to `CNC(=O)N1CCc2c(-c3cc(CN4CCC(CCN5CCN(c6ccc7c(c6)C(=O)N(C6CCC(=O)NC6=O)C7=O)CC5)CC4)cc(OC)c3)cn(C)c(=O)c2C1` (stereo not drawn) [Compound D79], for which the IC50 was not below 1000 nM. In turn, `CNC(=O)N1CCc2c(-c3cc(OC)c(CN4CCC(CCN5CC6CC5CN6c5ccc6c(c5)C(=O)N(C5CCC(=O)NC5=O)C6=O)CC4)c(OC)c3)cn(C)c(=O)c2C1` (stereo not drawn) [Compound D172] had an IC50 of less than 10 nM. Regarding `COc1cc(-c2cn(C)c(=O)c3c2CCN(C(=O)NCC2CC4CN(CCCOc5ccc6c(c5)C(=O)N(C5CCC(=O)NC5=O)C6=O)CC4C2)C3)cc(OC)c1CN(C)C` (stereo not drawn) [Compound D265], the IC50 fell in the range of 100 to 1000 nM. Take `CNC(=O)N1CCc2c(-c3cc(OC)c(CN4CCC(CCN5CCN(c6cc7c(c(F)c6F)CN(C6CCC(=O)NC6=O)C7=O)CC5)CC4)c(OC)c3)cn(C)c(=O)c2C1` (stereo not drawn) [Compound D75]: the half-inhibitory concentration (IC50) lay within 10 to 100 nM.

`COc1cc(-c2cn(C)c(=O)c3c2CCN(C(=O)NCCCN2CCC4CCN(c5ccc6c(c5)C(=O)N(C5CCC(=O)NC5=O)C6=O)C4C2)C3)cc(OC)c1CN(C)C` (stereo not drawn) [Compound D234] had a half-inhibitory concentration (IC50) of 10 to 100 nM.

Staying with this assay, now noted: SYO-1 cells, 6 hours, Table 6A.
`COc1cc(-c2cn(C)c(=O)c3c2CCN(C(=O)NCCCCCNc2cccc4c2C(=O)N(C2CCC(=O)NC2=O)C4=O)C3)cc(OC)c1CN(C)C` (stereo not drawn) [Compound D11, 5-(4-((dimethylamino)methyl)-3,5-dimethoxyphenyl)-N-(5-((2-(2,6-dioxopiperidin-3-yl)-1,3-dioxoisoindolin-4-yl)amino)pentyl)-7-methyl-8-oxo-3,4,7,8-tetrahydro-2,7-naphthyridine-2 (1H)-carboxamide formic acid] had an IC50 of more than 10 nM.

Still in this assay, the particulars now being: SYO-1 cells, 6 hours, Table 6A; read-out: SYO1 BRD9-NanoLuc degradation IC50.
For the molecule `COc1cc(-c2cn(C)c(=O)c3c2CCN(C(=O)NCCS(=O)(=O)CCNc2cccc4c2C(=O)N(C2CCC(=O)NC2=O)C4=O)C3)cc(OC)c1CN(C)C` (stereo not drawn) [Compound D7, 5-[4-[(dimethylamino)methyl]-3,5-dimethoxyphenyl]-N-[2-(2-[[2-(2,6-dioxopiperidin-3-yl)-1,3-dioxoisoindol-4-yl]amino]ethanesulfonyl)ethyl]-7-methyl-8-oxo-3,4-dihydro-1H-2,7-naphthyridine-2-carboxamide formic acid], the DC50 is more than 10 nM.

The assay is the same for the next values; noted with them: SYO-1 cells, 6 hours, Table 6C.
In the case of `CNC(=O)N1CCc2c(-c3cc(OC)c(CN4CCN(CCC5CCN(c6ccc7c(c6)CN(C6CCC(=O)NC6=O)C7=O)CC5)CC45CCC5)c(OC)c3)cn(C)c(=O)c2C1` (stereo not drawn) [Compound D321], the IC50 is less than 10 nM. In turn, `COc1cc(-c2cn(C)c(=O)c3c2CCN(C(=O)NCC(F)F)C3)cc(OC)c1CN1CCN(CCC2CCN(c3ccc4c(c3)C(=O)N(C3CCC(=O)NC3=O)C4)CC2)CC12CC2` (stereo not drawn) [Compound D312] displayed an IC50 of less than 10 nM. Still for that read-out and setting: as for `COc1cc(-c2cn(C)c(=O)c3c2CCC3)cc(OC)c1CN1CCC2(CC1)CN(c1cccc(N3CCC(=O)NC3=O)c1)C2` [Compound D375], the figure is not below 1000 nM. As for `COc1cc(-c2cn(C)c(=O)c3c2CCC3)cc(OC)c1CN1CC(C#Cc2ccc3c(c2)CN(C2CCC(=O)NC2=O)C3=O)C1` (stereo not drawn) [Compound D369], the IC50 is less than 10 nM. The molecule `CNC(=O)N1CCc2c(-c3cc(OC)c(CN4CCN(CCC5CCN(c6ccc7c(c6)CN(C6CCC(=O)NC6=O)C7=O)CC5)CC4COC)c(OC)c3)cn(C)c(=O)c2C1` (stereo not drawn) [Compound D329] yielded an IC50 of less than 10 nM. On to `[2H]C([2H])([2H])NC(=O)N1CCc2c(-c3cc(OC)c(CN4[C@H](C)CN(CCC5CCN(c6ccc7c(c6)C(=O)N(C6CCC(=O)NC6=O)C7)CC5)C[C@H]4C)c(OC)c3)cn(C)c(=O)c2C1` (stereo partly drawn) [Compound D323], for which the IC50 is less than 10 nM.
